From patent US20200148646A1, “6-S[…] 7-S[…] ANALOGS AND THE USE THEREOF” (Purdue Pharma, L.P., priority 2013, published 2020)

Legend:
Format in all cases: biochemical
[1] = target: T1, μ-opioid receptor (Homo sapiens, UniProt P35372); test: μ-opioid receptor [35S]GTPγS functional assay, U-2 OS cells; parameters: host or cells: U-2 OS cells; settings: for Emax: U2-OS cells, relative to DAMGO
Method: (§1) [^35S]GTPγS functional assays were conducted using freshly thawed μ-receptor membranes prepared in-house from a cell line expressing recombinant opioid receptor in a HEK-293, CHO or U-2 OS cell background, or purchased from a commercial source (Perkin Elmer, Shelton, Conn.; or DiscovRx, Fremont, Calif.). Assay reactions were prepared by sequentially adding the following reagents to binding buffer (100 mM NaCl, 10 mM MgCl2, 20 mM HEPES, pH 7.4) on ice (final concentrations indicated): membrane protein (0.026 mg/mL), saponin ([…]), GDP ([…]) and [^35S]GTPγS (0.20 nM; Perkin Elmer, Shelton, Conn.). The prepared membrane solution (190 l/well) was transferred to 96-shallow well polypropylene plates containing 10 μl of 20× concentrated stock solutions of the agonist [D-Ala^2, N-methyl-Phe^4 Gly-ol^5]-enkephalin (DAMGO) prepared in dimethyl sulfoxide (DMSO). Plates were incubated for 30 min at about 25° C. with shaking. Reactions were terminated by rapid filtration onto 96-well Unifilter GF/B filter plates (Perkin Elmer, Shelton, Conn.) using a 96-well tissue harvester (Perkin Elmer, Shelton, Conn.) followed by three filtration washes with 200 μl of ice-cold wash buffer (10 mM NaH2PO4, 10 mM Na2HPO4, pH 7.4). Filter plates were subsequently dried at 50° C. for 2-3 hr. BetaScint scintillation cocktail (Perkin Elmer, Shelton, Conn.) was added (50 μl/well) and plates were counted using a Packard Top-Count for 1 min/well. Data were analyzed using the sigmoidal dose-response curve fitting functions in GraphPad PRISM v. 3.0, or an in-house function for non-linear, sigmoidal dose-response curve-fitting.
(§2) μ GTP EC50 is the concentration of a compound providing 50% of the maximal response for the compound at a μ-opioid receptor.
(§3) μ GTP Emax (%) is the maximal effect elicited by a compound relative to the effect elicited by DAMGO, a standard agonist. Generally, the μ GTP Emax (%) value measures the efficacy of a compound to treat or prevent pain or other Conditions.
(§4) In TABLE 2A, activity response of certain Compounds of the Invention at the μ- and κ-opioid receptors using U-2 OS cells was determined as described above for functional assays.

[2] = target: human κ opioid receptor (Homo sapiens, UniProt P41145); test: κ-opioid receptor [35S]GTPγS functional assay, U-2 OS cells; parameters: expressed in transfected cells; host or cells: U-2 OS cells (in-house membranes); settings: for Emax: U2-OS cells, relative to U69,593
Method: Membranes from recombinant HEK-293 cells, CHO or U-2 OS cells expressing the recombinant human K opioid receptor (K) were prepared by lysing cells in ice cold hypotonic buffer (2.5 mM MgCl2, 50 mM HEPES, pH 7.4) (10 mL/10 cm dish) followed by homogenization with a tissue grinder/Teflon pestle. Functional [^35S]GTPγS binding assays were conducted as follows. K opioid receptor membrane solution was prepared by sequentially adding final concentrations of 0.026 μg/μl κ membrane protein (in-house), 10 μg/mL saponin, 3 μM GDP and 0.20 nM [^35S]GTPγS to binding buffer (100 mM NaCl, 10 mM MgCl2, 20 mM HEPES, pH 7.4) on ice. The prepared membrane solution (190 μl/well) was transferred to 96-shallow well polypropylene plates containing 10 μl of 20× concentrated stock solutions of agonist prepared in DMSO. Plates were incubated for 30 min at a temperature of about 25° C. with shaking. Reactions were terminated by rapid filtration onto 96-well Unifilter GF/B filter plates (Perkin Elmer, Shelton, Conn.) using a 96-well tissue harvester (Packard) and followed by three filtration washes with 200 μl ice-cold binding buffer (10 mM NaH2PO4, 10 mM Na2HPO4, pH 7.4). Filter plates were subsequently dried at 50° C. for 2-3 hours. Fifty μl/well scintillation cocktail (Perkin Elmer, Shelton, Conn.) was added and plates were counted in a Packard Top-Count for 1 min/well.
κ GTP EC50 is the concentration of a compound providing 50% of the maximal response for the compound at a κ receptor.
κ GTP Emax (%) is the maximal effect elicited by a compound relative to the effect elicited by U69,593.
as §4

[3] = target: T1, μ-opioid receptor; test: μ-opioid receptor [35S]GTPγS functional assay, HEK-293 or CHO cells; settings: for Emax: HEK-293 or CHO cells, relative to DAMGO
Method: as §1, §2, §3
In TABLE 2, activity response of certain Compounds of the Invention at the μ- and κ-opioid receptors using HEK-293 or CHO cells was determined as described above for functional assays.

Sequence of human κ opioid receptor (P41145 whole entry): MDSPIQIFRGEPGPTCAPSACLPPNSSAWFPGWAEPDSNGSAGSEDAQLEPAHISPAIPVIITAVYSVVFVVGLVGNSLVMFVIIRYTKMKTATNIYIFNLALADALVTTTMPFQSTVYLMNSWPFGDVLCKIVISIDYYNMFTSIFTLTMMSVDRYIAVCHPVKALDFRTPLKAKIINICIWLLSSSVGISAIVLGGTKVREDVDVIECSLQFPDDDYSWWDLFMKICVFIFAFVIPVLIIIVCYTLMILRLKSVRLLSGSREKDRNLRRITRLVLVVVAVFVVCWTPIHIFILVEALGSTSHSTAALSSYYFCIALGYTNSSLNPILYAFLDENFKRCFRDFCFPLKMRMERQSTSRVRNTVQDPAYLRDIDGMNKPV
T1 sequence (P35372 whole entry, species assumed): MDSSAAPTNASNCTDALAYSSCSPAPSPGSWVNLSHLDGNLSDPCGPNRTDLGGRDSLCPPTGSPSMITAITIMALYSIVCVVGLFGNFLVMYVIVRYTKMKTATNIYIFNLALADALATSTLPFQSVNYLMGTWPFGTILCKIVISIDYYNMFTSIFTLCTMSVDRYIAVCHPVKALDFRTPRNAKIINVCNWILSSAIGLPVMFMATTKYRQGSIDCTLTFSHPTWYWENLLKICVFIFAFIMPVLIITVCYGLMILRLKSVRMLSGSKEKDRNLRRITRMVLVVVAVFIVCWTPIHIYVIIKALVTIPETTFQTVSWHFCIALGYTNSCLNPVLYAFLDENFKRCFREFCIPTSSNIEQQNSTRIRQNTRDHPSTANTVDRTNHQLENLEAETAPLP

SMILES	EC50 [1]	Emax [1]	EC50 [2]	Emax [2]	EC50 [3]	Emax [3]
CC[C@H](C)C(=O)N[C@H]1C[C@@]2(O)[C@H]3Cc4ccc(O)cc4[C@@]2(CCN3CC2CC2)C[C@H]1O [Compound 59, (S)—N-((4bR,6R,7S,8aS,9R)-11-(cyclopropylmethyl)-3,6,8a-trihydroxy-6,7,8,8a,9,10-hexahydro-5H-9,4b-(epiminoethano)phenanthren-7-yl)-2-methylbutanamide]	0.045 ± 0.00896 µM	22.3 ± 1.45%	0.0356 ± 0.00427 µM	98.3 ± 3.18%		
CC(C)CC(=O)N[C@H]1C[C@@]2(O)[C@H]3Cc4ccc(O)cc4[C@@]2(CCN3CC2CC2)C[C@H]1O [Compound 60, N-((4bR,6R,7S,8aS,9R)-11-(cyclopropylmethyl)-3,6,8a-trihydroxy-6,7,8,8a,9,10-hexahydro-5H-9,4b-(epiminoethano)phenanthren-7-yl)-3-methylbutanamide]	0.0547 ± 0.0081 µM	25.3 ± 0.33%	0.0314 ± 0.0037 µM	106 ± 6.06%		
CC(C)CCC(=O)N[C@H]1C[C@@]2(O)[C@H]3Cc4ccc(O)cc4[C@@]2(CCN3CC2CC2)C[C@H]1O [Compound 61, N-((4bR,6R,7S,8aS,9R)-11-(cyclopropylmethyl)-3,6,8a-trihydroxy-6,7,8,8a,9,10-hexahydro-5H-9,4b-(epiminoethano)phenanthren-7-yl)-4-methylpentanamide]	0.0616 ± 0.00541 µM	26.7 ± 0.88%	0.0154 ± 0.00243 µM	97.7 ± 2.19%		
O=C(N[C@H]1C[C@@]2(O)[C@H]3Cc4ccc(O)cc4[C@@]2(CCN3CC2CC2)C[C@H]1O)C1CC1 [Compound 64, N-((4bR,6R,7S,8aS,9R)-11-(cyclopropylmethyl)-3,6,8a-trihydroxy-6,7,8,8a,9,10-hexahydro-5H-9,4b-(epiminoethano)phenanthren-7-yl)cyclopropanecarboxamide]	0.112 ± 0.0193 µM	7.33 ± 0.33%	0.0483 ± 0.0031 µM	93.7 ± 2.33%		
O=C(N[C@H]1C[C@@]2(O)[C@H]3Cc4ccc(O)cc4[C@@]2(CCN3CC2CC2)CC1O)C1CCCCC1 (stereo partly drawn) [Compound 65, N-((4bR,7S,8aS,9R)-11-(cyclopropylmethyl)-3,6,8a-trihydroxy-6,7,8,8a,9,10-hexahydro-5H-9,4b-(epiminoethano)phenanthren-7-yl)cyclohexanecarboxamide]	0.0684 ± 0.013 µM	26.7 ± 0.67%	0.0159 ± 0.00209 µM	106 ± 1.89%		
O=C(N[C@H]1C[C@@]2(O)[C@H]3Cc4ccc(O)cc4[C@@]2(CCN3CC2CC2)C[C@H]1O)c1ccccc1 [Compound 66, N-((4bR,6R,7S,8aS,9R)-11-(cyclopropylmethyl)-3,6,8a-trihydroxy-6,7,8,8a,9,10-hexahydro-5H-9,4b-(epiminoethano)phenanthren-7-yl)benzamide]	0.114 ± 0.0145 µM	15 ± 0.58%	0.0392 ± 0.00427 µM	71.7 ± 1.2%		
CC(C)C[C@H]1C[C@@]2(O)[C@H]3Cc4ccc(O)cc4[C@@]2(CCN3CC2CC2)C[C@H]1O [Compound 67, (4bR,6R,7S,8aS,9R)-11-(cyclopropylmethyl)-7-isobutyl-5,6,7,8,9,10-hexahydro-8aH-9,4b-(epiminoethano)phenanthrene-3,6,8a-triol]	> 20 µM	2%	0.0555 ± 0.0085 µM	89.3 ± 1.67%		
Oc1ccc2c(c1)[C@]13CCN(CC4CC4)[C@H](C2)[C@]1(O)C[C@H](Cc1ccccc1)[C@H](O)C3 [Compound 103, (4bR,6R,7S,8aS,9R)-7-benzyl-11-(cyclopropylmethyl)-5,6,7,8,9,10-hexahydro-8aH-9,4b-(epiminoethano)phenanthrene-3,6,8a-triol]					> 20 µM	1%
CC(C)C(=O)N[C@H]1C[C@@]2(O)[C@H]3Cc4ccc(O)cc4[C@@]2(CCN3C)C[C@H]1O [Compound 104, N-((4bR,6R,7S,8aS,9R)-3,6,8a-trihydroxy-11-methyl-6,7,8,8a,9,10-hexahydro-5H-9,4b-(epiminoethano)phenanthren-7-yl)isobutyramide]					15.5 ± 1.32 µM	23 ± 1.53%
CC(C)CCC(=O)N[C@H]1C[C@@]2(O)[C@H]3Cc4ccc(O)cc4[C@@]2(CCN3C)CC1O (stereo partly drawn) [Compound 105, 4-methyl-N-((4bR,7S,8aS,9R)-3,6,8a-trihydroxy-11-methyl-6,7,8,8a,9,10-hexahydro-5H-9,4b-(epiminoethano)phenanthren-7-yl)pentanamide]					3.65 ± 0.294 µM	77 ± 2.65%
CC(C)CCCC(=O)N[C@H]1C[C@@]2(O)[C@H]3Cc4ccc(O)cc4[C@@]2(CCN3C)CC1O (stereo partly drawn) [Compound 106, 5-methyl-N-((4bR,7S,8aS,9R)-3,6,8a-trihydroxy-11-methyl-6,7,8,8a,9,10-hexahydro-5H-9,4b-(epiminoethano)phenanthren-7-yl)hexanamide]					0.635 ± 0.0437 µM	82.3 ± 1.86%
CN(C)[C@@H]1CC[C@@]2(O)[C@H]3Cc4ccc(O)cc4[C@@]2(CCN3C)C1 [Compound 107, (4bR,6R,8aS,9R)-6-(dimethylamino)-11-methyl-5,6,7,8,9,10-hexahydro-8aH-9,4b-(epiminoethano)phenanthrene-3,8a-diol]					1.29 ± 0.0203 µM	36.3 ± 1.2%
CN1CC[C@]23C[C@@H](O)[C@@H](NC(=O)c4ccccc4)C[C@@]2(O)[C@H]1Cc1ccc(O)cc13 [Compound 108, N-((4bR,6R,7S,8aS,9R)-3,6,8a-trihydroxy-11-methyl-6,7,8,8a,9,10-hexahydro-5H-9,4b-(epiminoethano)phenanthren-7-yl)benzamide]					2.19 ± 0.211 µM	48.4 ± 0.66%
CC(C)CC[C@H]1C[C@@]2(O)[C@H]3Cc4ccc(O)cc4[C@@]2(CCN3C)C[C@H]1O [Compound 109, (4bR,6R,7S,8aS,9R)-7-isopentyl-11-methyl-5,6,7,8,9,10-hexahydro-8aH-9,4b-(epiminoethano)phenanthrene-3,6,8a-triol]					1.87 ± 0.203 µM	41.1 ± 3.25%
CN1CC[C@]23CC(O)[C@@H](CC4CCCC4)C[C@@]2(O)[C@H]1Cc1ccc(O)cc13 (stereo partly drawn) [Compound 110, (4bR,7S,8aS,9R)-7-(cyclopentylmethyl)-11-methyl-5,6,7,8,9,10-hexahydro-8aH-9,4b-(epiminoethano)phenanthrene-3,6,8a-triol]					> 20 µM	42.7 ± 32.7%
CN(C)CC(=O)N[C@H]1C[C@@]2(O)[C@H]3Cc4ccc(O)cc4[C@@]2(CCN3CC2CC2)C[C@@H]1O [Compound 111, N-((4bR,6S,7S,8aS,9R)-11-(cyclopropylmethyl)-3,6,8a-trihydroxy-6,7,8,8a,9,10-hexahydro-5H-9,4b-(epiminoethano)phenanthren-7-yl)-2-(dimethylamino)acetamide]					> 20 µM	1.67 ± 0.67%
CC(C)C(=O)N[C@H]1C[C@H]2[C@H]3Cc4ccc(O)cc4[C@@]2(CCN3CC2CC2)C[C@H]1O [Compound 112, N-((4bS,6R,7S,8aR,9R)-11-(cyclopropylmethyl)-3,6-dihydroxy-6,7,8,8a,9,10-hexahydro-5H-9,4b-(epiminoethano)phenanthren-7-yl)isobutyramide]					0.0667 ± 0.0275 µM	8.61 ± 0.31%
